In patent US20060021470A1, “Compositions for enhancing biological functions in organisms” (priority 2004, published 2006):

System: ech42 (42-kDa endochitinase-encoding) gene expression
Assay: ech42 endochitinase promoter:gfp induction in T. atroviride strain P1
Type: cell-based
Details: endochitinase promoter:gfp fluorescence in Trichoderma strain P1
From the text: To monitor chitinase expression during mycoparasitism of Trichoderma atroviride (formerly T. harzianum) strain P1 in situ, the strain was transformed with plasmids containing fusions of green fluorescent protein (“gfp”) to the 5-regulatory sequences of the T. atroviride nag1 gene (N-acetyl-beta-D-glucosaminidase-encoding) or ech42 (42-kDa endochitinase-encoding) genes. Confronting these strains with the target Rhizoctonia solani led to induction of gene expression before (ech42) or after (nag 1) physical contact. […] The chitinase inhibitor allosamidin blocked ech42 expression and reduced inhibition of R. solani growth during confrontation. […] T. atroviride, T. harzianum, and any other species of Trichoderma produce small quantities of particular enzymes constitutively. […]
The ability of Trichoderma to release elicitor compounds from the various target fungi was measured by induction of gfp in the endochitinase promoter labeled P1 strain of Trichoderma. […]
In subsequent experiments, the release of elicitors from cell walls of some of the same fungi and Oomycetes tested above using enzymes (endochitinase, glucanase, exochitinase, mixed cellulase) purified from T. atroviride was assessed. Again, the elicitation abilities of the materials were assessed with Trichoderma strain P1 transformed to contain the endochitinase promoter:gfp construct. […]

Chitobiose
elicitor activity: least effective
